From patent US20230382888A1, “HDAC INHIBITOR SOLID STATE FORMS” (Viracta Subsidiary, Inc., priority 2020, published 2023)
Entries after “also recorded” stand apart in the source; their conditions may differ.

Tests used:
Assay type in all cases: physicochemical
[1] = Thermodynamic aqueous solubility; conditions: for pH of saturated solution: water, after 24 hours equilibration at 25° C.
Procedure: Aqueous solubility was determined by suspending sufficient compound in 0.5 ml deionized water to give a maximum final concentration of 40 mg/ml of the parent free-form of the compound. The suspension was equilibrated at 25° C., on a Heidolph plate shaker set to 750 rpm for 24 hours. After equilibration, the appearance was noted and the pH of the saturated solution was measured. Samples forming suspensions were centrifuged for 4 min at 13,500 rpm. Samples were then filtered through a glass fiber C filter (particle retention 1.2 μm), before dilution with H2 O as appropriate. Quantitation was by HPLC (see Table 2 for parameters) with reference to a standard solution of approximately 0.15 mg/ml in DMSO. Different volumes of the standard, diluted and undiluted sample solutions were injected. The solubility was calculated using the peak areas determined by integration of the peak found at the same retention time as the principal peak in the standard injection. Analysis was performed on an Agilent HP1100/Infinity II 1260 series system equipped with a diode array detector and using OpenLAB software.

[2] = Static storage stability at elevated temperature/humidity (XRPD, HPLC)
[3] = Intrinsic dissolution rate (IDR) in FaSSGF
[4] = Gravimetric vapour sorption (GVS)
Procedure: Sorption isotherms were obtained using a SMS DVS Intrinsic moisture sorption analyser, controlled by DVS Intrinsic Control software. The sample temperature was maintained at 25° C. by the instrument controls. The humidity was controlled by mixing streams of dry and wet nitrogen, with a total flow rate of 200 ml/min. The relative humidity was measured by a calibrated Rotronic probe (dynamic range of 1.0 — 100% RH), located near the sample. The weight change, (mass relaxation) of the sample as a function of % RH was constantly monitored by a microbalance (accuracy ±0.005 mg). Typically, 20-30 mg of sample was placed in a tared mesh stainless steel basket under ambient conditions. The sample was loaded and unloaded at 40% RH and 25° C. (typical room conditions). A moisture sorption isotherm was performed as outlined below (2 scans per complete cycle). The standard isotherm was performed at 25° C. at 10% RH intervals over a 0-90% RH range. Typically, a double cycle (4 scans) was carried out. Data analysis was carried out within Microsoft Excel using the DVS Analysis Suite. [table]

[5] = Competitive slurries in different water activity (thermodynamic stability)
Procedure: Competitive slurries of the anhydrous and hydrated forms in different water activity at 50° C. and 5° C. were used to determine the thermodynamic stability relationships.

solubility at 24 h ([1]; thermodynamic from solid, deionized water, 25° C., 24 hours, maximum final concentration 40 mg/ml of parent free-form): 40 mg/mL | pH of saturated solution [1]: (pH = 3.2) | pH of saturated solution ([1]; listed as mesylate): ~3.2 | HPLC purity after static storage ([2]; 25° C./97% RH, 1 week): no significant drop in purity | HPLC purity after static storage ([2]; 25° C./97% RH, 14 weeks): 93.5% | Solid form by XRPD after static storage ([2]; 25° C./97% RH, 14 weeks): Mesylate Form 1 | HPLC purity after static storage ([2]; 40° C./75% RH, 1 week): no significant drop in purity | HPLC purity after static storage ([2]; 40° C./75% RH, 14 weeks): Form 2 (94.7% purity) | Solid form by XRPD after static storage ([2]; 40° C./75% RH, 14 weeks): Mixture of Mesylate Form 1 and Mesylate | IDR relative to free base form A ([3]; FaSSGF): ~8 times | IDR in FaSSGF ([3]; Fasted State Simulated Gastric Fluid): 9.1 mg/min/cm^2 | Reversible water uptake by GVS ([4]; 0-90% RH, 25° C.): 0.35% reversible uptake from 0-90% | Hygroscopicity by GVS ([4]; 25° C.): Slightly hygroscopic | Water activity (aw) up to which the form is the most stable ([5]; competitive slurries at 50° C.): 0.6 | Water activity (aw) up to which the form is the most stable ([5]; competitive slurries at ° C. (so in the source)): ≥ 0.3
Structure (SMILES): O=C(NO)c1cnc(N2C[C@@H]3[C@H](C2)[C@H]3NCc2ccc3cc(F)ccc3n2)nc1 [Mesylate Form 1, N-hydroxy 2-{6-[(6-fluoro-quinolin-2-ylmethyl)-amino]-3-aza-bicyclo[3.1.0]hex-3-yl}pyrimidine-5-carboxamide]
Solid form by XRPD after static storage ([2]; 25° C./97% RH, 7 days (1 week)): unchanged; also recorded: No change, Mesylate Form 1 | Solid form by XRPD after static storage ([2]; 40° C./75% RH, 7 days (1 week)): unchanged; also recorded: No change, Mesylate Form 1 | XRPD post-GVS (solid form) ([4]; residue after GVS): no change; also recorded: XRPD remains unchanged
